Source: US9879010B2, “Pyrrolo[2,3-b]pyridin-4-yl-amines and pyrrolo[2,3-b] pyrimidin-5-yl-amines as Janus kinase inhibitors” (Incyte Corporation, priority 2004, dated 2018)

Columns and labels:
[1] = tested on: murine skin contact delayed-type hypersensitivity (DTH) response; assay: Murine DTH model for dermatitis, ear swelling; format: in vivo, mice
Procedure: Certain compounds herein were also tested for their efficacies (of inhibiting Jak targets) in the T-cell driven murine delayed hypersensitivity test model. The murine skin contact delayed-type hypersensitivity (DTH) response is considered to be a valid model of clinical contact dermatitis, and other T-lymphocyte mediated immune disorders of the skin, such as psoriasis (Immunol Today. 1998 January; 19(1):37-44). Murine DTH shares multiple characteristics with psoriasis, including the immune infiltrate, the accompanying increase in inflammatory cytokines, and keratinocyte hyperproliferation. Furthermore, many classes of agents that are efficacious in treating psoriasis in the clinic are also effective inhibitors of the DTH response in mice (Agents Actions. 1993 January; 38(1-2):116-21).
Test compound 3-{(3R,4R)-4-methyl-3-[methyl-(7H-pyrrolo[2,3-d]pyrimidin-4-yl)amino]-piperidin-1-yl}-3-oxo-propionitrile (see, e.g., WO 01/42246, WO 02/00661, or WO 03/48162) was administered continuously using mini-osmotic pumps to deliver the compound at 150 mg/kg/d. The inflammatory response was monitored by measuring the ear thickness prior to and after immune challenge. Differences in ear thickness were calculated for each mouse and then averaged for the group. Comparisons were made between vehicle and the treated groups in the context of the negative controls (challenged without sensitization) and therapeutic positive control mice (treated with dexamethasone or other efficacious agent).
A further murine DTH experiment was conducted by treating mice with 3-{(3R,4R)-4-methyl-3-[methyl-(7H-pyrrolo[2,3-d]pyrimidin-4-yl)amino]-piperidin-1-yl}-3-oxo-propionitrile either systemically or topically (3%, BID) after the sensitization phase was complete.

STAT3 = assay: Immunohistochemistry of ear sections in murine DTH model; format: in vivo, mice; settings: after the sensitization phase
Procedure: To determine if topical administration of the test compound was sufficient to inhibit activation of the Jak-STAT pathway, immunohistochemistry was carried out on fixed tissues.

[2] = tested on: NOD mouse model of autoimmune type 1 diabetes; settings: cited from earlier work
[3] = tested on: myeloid dendritic cells (DCs); settings: CD40-induced maturation of myeloid DCs; cited from earlier work
[4] = tested on: IL-6-dependent MM cell lines; settings: cited from earlier work
[5] = systemic, continuous by mini-osmotic pumps, 150 mg/kg/d

C[C@@H]1CCN(C(=O)CC#N)C[C@@H]1N(C)c1ncnc2[nH]ccc12 [3-{(3R,4R)-4-methyl-3-[methyl-(7H-pyrrolo[2,3-d]pyrimidin-4-yl)amino]-piperidin-1-yl}-3-oxo-propionitrile]
inhibition of ear swelling ([1]; systemic administration during the challenge phase, after sensitization phase complete (FIG. 1)): > 50%
histological analysis of hematoxolyin and eosin stained tissue sections [1, 5]: near complete inhibition of ear swelling
inhibition of ear swelling [1, 5]: 95%
inhibition of ear swelling ([1]; topical administration (3%, BID) during the challenge phase, after sensitization phase complete (FIG. 1)): > 50%
number of infiltrating cells (STAT3; systemic administration): visibly reduced
phosphorylation of STAT3 in all cell types (STAT3; systemic administration): inhibited
number of infiltrating cells (STAT3; topical administration): visibly reduced
phosphorylation of STAT3 in all cell types (STAT3; topical administration): inhibited

COc1cc2ncnc(Nc3ccc(O)cc3)c2cc1OC [JANEX-1]
onset of diabetes [2]: delayed the onset of diabetes

COc1cc2ncnc(Nc3ccc(O)c(Br)c3)c2cc1OC [WHI-P-154]
CD40-induced JAK3 activity, costimulatory molecule expression, IL-12 production, allogeneic stimulatory capacity [3]: prevented these effects

N#C/C(=C\c1ccc(O)c(O)c1)C(=O)NCc1ccccc1 [tyrphostin AG490]
JAK2 kinase activity and ERK2 and STAT3 phosphorylation [4]: inhibited
apoptosis [4]: induced
cell proliferation [4]: suppressed
